According to the kinase profiling compilation of Christmann-Franck et al. (2016):

What was measured:
Experiment in all cases: radiometric filter-binding kinase assay
AURKB (human) = AURKB (human) (UniProt Q96GD4)
BRSK2 (human) = BRSK2 (human) (UniProt Q8IWQ3)
CAMKK2 (human) = CAMKK2 (human) (UniProt Q96RR4); details: compound 10.0 µM
CHEK1 (human) = CHEK1 (human) (UniProt O14757)
CLK2 (human) = CLK2 (human) (UniProt P49760)
CSNK2A1 (human) = CSNK2A1 (human) (UniProt P68400)
CaMK1 (human) = CaMK1 (human) (UniProt Q14012)
Chain of CaMK1 (human) (Q14012 whole entry, looked up): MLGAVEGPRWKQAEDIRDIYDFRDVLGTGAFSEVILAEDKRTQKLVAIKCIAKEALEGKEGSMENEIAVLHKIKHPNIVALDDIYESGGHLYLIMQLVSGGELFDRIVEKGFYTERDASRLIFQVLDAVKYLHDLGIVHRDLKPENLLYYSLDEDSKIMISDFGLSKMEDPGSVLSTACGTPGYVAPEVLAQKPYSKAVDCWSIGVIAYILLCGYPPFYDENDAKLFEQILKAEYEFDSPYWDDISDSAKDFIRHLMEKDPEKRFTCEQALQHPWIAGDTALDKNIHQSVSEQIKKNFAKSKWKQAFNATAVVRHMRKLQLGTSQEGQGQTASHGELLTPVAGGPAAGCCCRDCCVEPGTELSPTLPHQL

DAPK1 (human) = DAPK1 (human) (UniProt P53355)
DYRK1A (human) = DYRK1A (human) (UniProt Q13627); details: compound 10.0 µM
DYRK3 (human) = DYRK3 (human) (UniProt O43781); details: compound 1.0 µM
EPHB2 (human) = EPHB2 (human) (UniProt P29323)
FGFR1 (human) = FGFR1 (human) (UniProt P11362); details: compound 1.0 µM
GCK (human) = GCK (human) (UniProt Q12851)
HIPK1 (human) = HIPK1 (human) (UniProt Q86Z02)
Chain of HIPK1 (human) (Q86Z02 whole entry, looked up): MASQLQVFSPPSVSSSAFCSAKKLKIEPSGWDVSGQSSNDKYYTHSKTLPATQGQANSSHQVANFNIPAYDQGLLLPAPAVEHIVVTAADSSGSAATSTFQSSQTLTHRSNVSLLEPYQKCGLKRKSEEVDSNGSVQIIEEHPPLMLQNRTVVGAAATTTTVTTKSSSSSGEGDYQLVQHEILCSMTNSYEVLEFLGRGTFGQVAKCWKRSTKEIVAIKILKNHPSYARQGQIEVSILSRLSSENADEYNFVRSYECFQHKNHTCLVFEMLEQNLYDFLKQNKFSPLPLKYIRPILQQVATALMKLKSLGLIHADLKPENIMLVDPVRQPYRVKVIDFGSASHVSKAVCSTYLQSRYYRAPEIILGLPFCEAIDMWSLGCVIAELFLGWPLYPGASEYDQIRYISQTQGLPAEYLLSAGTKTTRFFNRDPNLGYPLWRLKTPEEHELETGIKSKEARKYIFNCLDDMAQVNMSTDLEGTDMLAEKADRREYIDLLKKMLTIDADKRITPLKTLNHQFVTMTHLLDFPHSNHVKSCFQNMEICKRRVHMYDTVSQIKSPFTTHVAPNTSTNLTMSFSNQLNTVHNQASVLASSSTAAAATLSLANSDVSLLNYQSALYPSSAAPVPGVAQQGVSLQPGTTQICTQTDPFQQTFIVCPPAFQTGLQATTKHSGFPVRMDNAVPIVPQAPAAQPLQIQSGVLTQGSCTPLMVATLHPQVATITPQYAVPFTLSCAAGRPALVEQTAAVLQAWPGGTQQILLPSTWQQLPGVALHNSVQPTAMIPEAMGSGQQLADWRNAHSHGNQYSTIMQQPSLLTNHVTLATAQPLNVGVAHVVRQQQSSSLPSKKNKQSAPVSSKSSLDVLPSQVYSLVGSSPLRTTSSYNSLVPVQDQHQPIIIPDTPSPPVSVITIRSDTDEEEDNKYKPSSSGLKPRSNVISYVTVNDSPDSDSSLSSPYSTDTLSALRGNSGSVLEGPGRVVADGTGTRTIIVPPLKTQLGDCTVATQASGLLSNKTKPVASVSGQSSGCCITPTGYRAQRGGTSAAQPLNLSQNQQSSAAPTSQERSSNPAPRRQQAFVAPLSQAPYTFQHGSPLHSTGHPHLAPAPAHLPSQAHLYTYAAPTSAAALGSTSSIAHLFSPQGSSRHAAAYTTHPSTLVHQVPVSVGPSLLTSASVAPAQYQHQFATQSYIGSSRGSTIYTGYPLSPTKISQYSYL

HIPK2 (human) = HIPK2 (human) (UniProt Q9H2X6)
IGF1R (human) = IGF1R (human) (UniProt P08069); details: compound 10.0 µM
JAK2 JH1 JH2 (human) = JAK2 JH1 JH2 (human) (UniProt O60674); details: compound 1.0 µM
LCK (mouse) = details: accession and sequence are those of the human protein
MAPK10 (human) = MAPK10 (human) (UniProt P53779)
MAPK11 (human) = MAPK11 (human) (UniProt Q15759)
Chain of MAPK11 (human) (Q15759 whole entry, looked up): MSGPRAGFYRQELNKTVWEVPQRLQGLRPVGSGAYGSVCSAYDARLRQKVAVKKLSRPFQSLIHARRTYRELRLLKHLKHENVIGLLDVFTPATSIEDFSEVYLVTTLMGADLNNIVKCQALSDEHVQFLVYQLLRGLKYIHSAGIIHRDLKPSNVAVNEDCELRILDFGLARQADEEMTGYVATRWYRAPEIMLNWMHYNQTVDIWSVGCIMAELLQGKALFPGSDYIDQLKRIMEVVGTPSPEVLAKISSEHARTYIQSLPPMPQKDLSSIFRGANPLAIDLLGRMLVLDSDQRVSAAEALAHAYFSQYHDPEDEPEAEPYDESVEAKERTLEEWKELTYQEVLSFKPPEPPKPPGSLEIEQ

MAPK13 (human) = MAPK13 (human) (UniProt O15264)
MAPK8 (human) = MAPK8 (human) (UniProt P45983)
Chain of MAPK8 (human) (P45983 whole entry, looked up): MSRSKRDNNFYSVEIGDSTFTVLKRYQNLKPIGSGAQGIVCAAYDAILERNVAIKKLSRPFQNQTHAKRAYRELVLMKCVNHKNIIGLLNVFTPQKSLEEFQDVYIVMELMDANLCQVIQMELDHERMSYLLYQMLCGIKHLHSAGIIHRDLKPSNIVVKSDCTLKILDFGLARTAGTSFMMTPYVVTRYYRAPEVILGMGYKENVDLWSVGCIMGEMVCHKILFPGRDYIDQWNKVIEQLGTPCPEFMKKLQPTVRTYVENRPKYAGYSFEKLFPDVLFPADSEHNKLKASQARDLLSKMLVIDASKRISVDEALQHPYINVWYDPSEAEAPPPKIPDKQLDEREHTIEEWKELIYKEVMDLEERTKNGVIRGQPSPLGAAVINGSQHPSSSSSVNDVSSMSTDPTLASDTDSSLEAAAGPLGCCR

MAPKAPK5 (human) = MAPKAPK5 (human) (UniProt Q8IW41)
Chain of MAPKAPK5 (human) (Q8IW41 whole entry, looked up): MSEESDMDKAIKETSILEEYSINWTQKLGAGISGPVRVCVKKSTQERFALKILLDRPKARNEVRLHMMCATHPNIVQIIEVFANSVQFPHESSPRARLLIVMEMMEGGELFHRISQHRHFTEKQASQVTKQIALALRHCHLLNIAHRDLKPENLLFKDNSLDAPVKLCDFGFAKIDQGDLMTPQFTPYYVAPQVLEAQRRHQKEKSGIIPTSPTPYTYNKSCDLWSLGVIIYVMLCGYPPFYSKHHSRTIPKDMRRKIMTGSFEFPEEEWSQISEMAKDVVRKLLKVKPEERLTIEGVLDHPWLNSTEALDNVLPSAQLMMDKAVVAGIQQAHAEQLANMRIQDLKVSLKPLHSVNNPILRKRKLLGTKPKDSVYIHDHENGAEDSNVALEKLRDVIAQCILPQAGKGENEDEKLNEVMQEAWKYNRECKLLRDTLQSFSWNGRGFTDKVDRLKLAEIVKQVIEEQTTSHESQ

MARK3 (human) = MARK3 (human) (UniProt P27448)
Chain of MARK3 (human) (P27448 whole entry, looked up): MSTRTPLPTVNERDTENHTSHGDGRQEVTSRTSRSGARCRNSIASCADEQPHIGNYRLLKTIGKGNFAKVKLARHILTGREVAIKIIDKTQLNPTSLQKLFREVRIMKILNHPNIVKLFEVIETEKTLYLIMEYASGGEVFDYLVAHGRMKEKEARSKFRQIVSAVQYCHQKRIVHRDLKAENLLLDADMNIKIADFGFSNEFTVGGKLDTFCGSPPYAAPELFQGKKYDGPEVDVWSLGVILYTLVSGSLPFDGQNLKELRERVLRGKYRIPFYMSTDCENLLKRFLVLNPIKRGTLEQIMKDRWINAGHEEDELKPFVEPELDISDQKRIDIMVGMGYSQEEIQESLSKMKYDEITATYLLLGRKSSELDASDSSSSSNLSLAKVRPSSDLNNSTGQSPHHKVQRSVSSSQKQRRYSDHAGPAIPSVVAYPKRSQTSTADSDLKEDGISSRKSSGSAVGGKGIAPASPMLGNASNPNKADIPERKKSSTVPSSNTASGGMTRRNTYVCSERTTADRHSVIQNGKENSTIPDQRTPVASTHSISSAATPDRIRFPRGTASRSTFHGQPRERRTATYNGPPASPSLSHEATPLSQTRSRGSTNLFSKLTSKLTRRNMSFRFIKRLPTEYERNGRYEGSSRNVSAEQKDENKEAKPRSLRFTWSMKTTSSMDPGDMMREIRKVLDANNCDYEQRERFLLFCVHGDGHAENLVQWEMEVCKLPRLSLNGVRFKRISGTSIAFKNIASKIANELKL

MINK1 (human) = MINK1 (human) (UniProt Q8N4C8)
MKNK1 (human) = MKNK1 (human) (UniProt Q9BUB5)
[1] = test system: PAK2 (human), Q13177 [T402E]
PHKG1 (human) = PHKG1 (human) (UniProt Q16816)
Chain of PHKG1 (human) (Q16816 whole entry, looked up): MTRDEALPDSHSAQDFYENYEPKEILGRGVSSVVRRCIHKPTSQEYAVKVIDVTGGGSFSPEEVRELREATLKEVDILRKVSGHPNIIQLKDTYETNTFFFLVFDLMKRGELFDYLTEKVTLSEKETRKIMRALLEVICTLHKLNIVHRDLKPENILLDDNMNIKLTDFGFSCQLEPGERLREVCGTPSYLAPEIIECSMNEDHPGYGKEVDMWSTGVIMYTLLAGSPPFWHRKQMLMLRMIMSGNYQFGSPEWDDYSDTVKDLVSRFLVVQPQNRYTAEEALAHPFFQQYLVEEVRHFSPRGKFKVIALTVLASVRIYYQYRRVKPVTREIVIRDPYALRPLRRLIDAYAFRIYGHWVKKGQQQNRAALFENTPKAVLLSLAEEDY

PIM3 (human) = PIM3 (human) (UniProt Q86V86)
ROCK2 (rat) = details: accession and sequence are those of the human protein
[2] = test system: SGK1 (human), O00141 [S422D]
SRPK1 (human) = SRPK1 (human) (UniProt Q96SB4)
STK3 (human) = STK3 (human) (UniProt Q13188)
TAOK1 (human) = TAOK1 (human) (UniProt Q7L7X3)
TBK1 (human) = TBK1 (human) (UniProt Q9UHD2); details: compound 10.0 µM
YES1 (human) = YES1 (human) (UniProt P07947)

Chain of AURKB (human) (Q96GD4 whole entry, looked up): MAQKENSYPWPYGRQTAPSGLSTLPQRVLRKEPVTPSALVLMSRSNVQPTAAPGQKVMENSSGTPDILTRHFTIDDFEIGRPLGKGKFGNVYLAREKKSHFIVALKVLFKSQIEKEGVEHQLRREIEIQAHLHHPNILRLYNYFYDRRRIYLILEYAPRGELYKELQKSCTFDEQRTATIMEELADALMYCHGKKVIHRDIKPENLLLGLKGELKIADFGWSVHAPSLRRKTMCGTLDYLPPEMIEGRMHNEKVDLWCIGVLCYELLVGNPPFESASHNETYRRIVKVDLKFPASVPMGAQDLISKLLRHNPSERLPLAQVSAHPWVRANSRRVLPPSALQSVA

NCC(=O)Nc1ccc(-n2nc(C(F)(F)F)cc2-c2ccc3c(ccc4ccccc43)c2)cc1
residual activity (AURKB (human); compound 1.0 µM): 93%
residual activity (AURKB (human); compound 10.0 µM): 88%
residual activity (BRSK2 (human); compound 1.0 µM): 76%
residual activity (BRSK2 (human); compound 10.0 µM): 64%
residual activity (CAMKK2 (human)): 115%
residual activity (CHEK1 (human); compound 1.0 µM): 72%
residual activity (CHEK1 (human); compound 10.0 µM): 44%
residual activity (CLK2 (human); compound 1.0 µM): 93%
residual activity (CLK2 (human); compound 10.0 µM): 64%
residual activity (CSNK2A1 (human); compound 1.0 µM): 111%
residual activity (CSNK2A1 (human); compound 10.0 µM): 79%
residual activity (CaMK1 (human); compound 1.0 µM): 109%
residual activity (CaMK1 (human); compound 10.0 µM): 21%
residual activity (DAPK1 (human); compound 1.0 µM): 95%
residual activity (DAPK1 (human); compound 10.0 µM): 43%
residual activity (DYRK1A (human)): 82%
residual activity (DYRK3 (human)): 108%
residual activity (EPHB2 (human); compound 1.0 µM): 82%
residual activity (EPHB2 (human); compound 10.0 µM): 91%
residual activity (FGFR1 (human)): 111%
residual activity (GCK (human); compound 1.0 µM): 107%
residual activity (GCK (human); compound 10.0 µM): 92%
residual activity (HIPK1 (human); compound 1.0 µM): 104%
residual activity (HIPK1 (human); compound 10.0 µM): 90%
residual activity (HIPK2 (human); compound 1.0 µM): 88%
residual activity (HIPK2 (human); compound 10.0 µM): 69%
residual activity (IGF1R (human)): 105%
residual activity (JAK2 JH1 JH2 (human)): 101%
residual activity (LCK (mouse); compound 1.0 µM): 84%
residual activity (LCK (mouse); compound 10.0 µM): 247%
residual activity (MAPK10 (human); compound 1.0 µM): 85%
residual activity (MAPK10 (human); compound 10.0 µM): 86%
residual activity (MAPK11 (human); compound 1.0 µM): 92%
residual activity (MAPK11 (human); compound 10.0 µM): 95%
residual activity (MAPK13 (human); compound 1.0 µM): 96%
residual activity (MAPK13 (human); compound 10.0 µM): 70%
residual activity (MAPK8 (human); compound 1.0 µM): 107%
residual activity (MAPK8 (human); compound 10.0 µM): 103%
residual activity (MAPKAPK5 (human); compound 1.0 µM): 89%
residual activity (MAPKAPK5 (human); compound 10.0 µM): 76%
residual activity (MARK3 (human); compound 1.0 µM): 96%
residual activity (MARK3 (human); compound 10.0 µM): 101%
residual activity (MINK1 (human); compound 1.0 µM): 78%
residual activity (MINK1 (human); compound 10.0 µM): 47%
residual activity (MKNK1 (human); compound 1.0 µM): 86%
residual activity (MKNK1 (human); compound 10.0 µM): 83%
residual activity ([1]; compound 1.0 µM): 107%
residual activity ([1]; compound 10.0 µM): 75%
residual activity (PHKG1 (human); compound 1.0 µM): 79%
residual activity (PHKG1 (human); compound 10.0 µM): 72%
residual activity (PIM3 (human); compound 1.0 µM): 99%
residual activity (PIM3 (human); compound 10.0 µM): 64%
residual activity (ROCK2 (rat); compound 1.0 µM): 88%
residual activity (ROCK2 (rat); compound 10.0 µM): 87%
residual activity ([2]; compound 1.0 µM): 71%
residual activity ([2]; compound 10.0 µM): 30%
residual activity (SRPK1 (human); compound 1.0 µM): 94%
residual activity (SRPK1 (human); compound 10.0 µM): 80%
residual activity (STK3 (human); compound 1.0 µM): 106%
residual activity (STK3 (human); compound 10.0 µM): 81%
residual activity (TAOK1 (human); compound 1.0 µM): 103%
residual activity (TAOK1 (human); compound 10.0 µM): 92%
residual activity (TBK1 (human)): 83%
residual activity (YES1 (human); compound 1.0 µM): 85%
residual activity (YES1 (human); compound 10.0 µM): 80%
